Test results reported in ChEMBL document CHEMBL3124815, “Discovery of a selective kinase inhibitor (TAK-632) targeting pan-RAF inhibition: design, synthesis, and biological evaluation of C-7-substituted 1,3-benzothiazole derivatives” (J Med Chem, 2013).
Values after ≈ are worked out from the molar mass of the structure shown.

What was measured:
[1] = target: T1, Serine/threonine-protein kinase B-raf (Homo sapiens, UniProt P15056, V600E)
Target sequence in this assay (P15056 whole entry V600E): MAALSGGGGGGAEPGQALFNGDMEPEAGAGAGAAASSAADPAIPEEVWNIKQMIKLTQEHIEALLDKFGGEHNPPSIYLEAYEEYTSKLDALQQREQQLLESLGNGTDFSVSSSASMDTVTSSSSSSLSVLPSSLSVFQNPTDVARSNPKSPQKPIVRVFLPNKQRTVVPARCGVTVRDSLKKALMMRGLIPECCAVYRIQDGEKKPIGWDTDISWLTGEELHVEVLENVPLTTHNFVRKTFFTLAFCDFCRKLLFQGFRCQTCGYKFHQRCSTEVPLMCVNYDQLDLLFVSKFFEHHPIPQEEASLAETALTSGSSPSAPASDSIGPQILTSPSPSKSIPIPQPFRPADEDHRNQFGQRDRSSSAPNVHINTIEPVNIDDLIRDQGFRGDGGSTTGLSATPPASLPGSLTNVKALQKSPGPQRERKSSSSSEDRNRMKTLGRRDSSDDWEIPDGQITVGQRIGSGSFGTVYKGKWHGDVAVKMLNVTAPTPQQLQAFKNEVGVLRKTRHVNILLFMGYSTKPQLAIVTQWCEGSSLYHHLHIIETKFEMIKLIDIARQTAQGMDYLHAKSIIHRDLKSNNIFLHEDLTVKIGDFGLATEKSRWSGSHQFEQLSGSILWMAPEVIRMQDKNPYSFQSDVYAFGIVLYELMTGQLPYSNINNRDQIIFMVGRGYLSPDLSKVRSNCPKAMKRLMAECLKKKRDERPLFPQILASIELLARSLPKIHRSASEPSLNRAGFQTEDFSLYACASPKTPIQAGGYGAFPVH

[2] = Total clearance in dog at 1 mg/kg, iv; assay type: ADME, organism-based, Canis lupus familiaris; set-up: dose 1 mg/kg, route intravenous; settings: in vivo
[3] = AUC (0 to 24 hrs) in rat at 1 mg/kg, iv; assay type: ADME, organism-based; set-up: time < 24 hr, dose 1 mg/kg, route intravenous; settings: plasma
[4] = target: Inhibitor of nuclear factor kappa-B kinase subunit beta (Homo sapiens, UniProt O14920); assay: Inhibition of C-terminal FLAG-tagged IKK beta (unknown origin) expressed in baculovirus system using IkappaBalpha as substrate after 40 mins
[5] = target: Mitogen-activated protein kinase kinase kinase 1 (Homo sapiens, UniProt Q13233); assay: Inhibition of C-terminal FLAG-tagged MEKK1 (unknown origin) expressed in baculovirus system using MBP as substrate after 60 mins
[6] = target: Hepatocyte growth factor receptor (Homo sapiens, UniProt P08581); assay: Inhibition of c-Met receptor (unknown origin) using biotinylated poly-Glu-Tyr (4:1) as substrate preincubated for 5 mins measured after 12 hrs
[7] = target: Mitogen-activated protein kinase 3 (Homo sapiens, UniProt P27361); assay: Inhibition of C-terminal FLAG-tagged ERK1 expressed in baculovirus system (unknown origin) using MBP as substrate after 60 mins
[8] = target: T2, RAF proto-oncogene serine/threonine-protein kinase (Homo sapiens, UniProt P04049); assay: Competitive inhibition of CRAF (unknown origin) in presence of 0.5 uM ATP by ELISA
[9] = target: T1, Serine/threonine-protein kinase B-raf; assay: Inhibition of BRAF V600E mutant (unknown origin) compound preincubated for 1 hr in presence of 5 uM ATP
Target sequence in this assay (P15056 2-766 V600E limits assumed): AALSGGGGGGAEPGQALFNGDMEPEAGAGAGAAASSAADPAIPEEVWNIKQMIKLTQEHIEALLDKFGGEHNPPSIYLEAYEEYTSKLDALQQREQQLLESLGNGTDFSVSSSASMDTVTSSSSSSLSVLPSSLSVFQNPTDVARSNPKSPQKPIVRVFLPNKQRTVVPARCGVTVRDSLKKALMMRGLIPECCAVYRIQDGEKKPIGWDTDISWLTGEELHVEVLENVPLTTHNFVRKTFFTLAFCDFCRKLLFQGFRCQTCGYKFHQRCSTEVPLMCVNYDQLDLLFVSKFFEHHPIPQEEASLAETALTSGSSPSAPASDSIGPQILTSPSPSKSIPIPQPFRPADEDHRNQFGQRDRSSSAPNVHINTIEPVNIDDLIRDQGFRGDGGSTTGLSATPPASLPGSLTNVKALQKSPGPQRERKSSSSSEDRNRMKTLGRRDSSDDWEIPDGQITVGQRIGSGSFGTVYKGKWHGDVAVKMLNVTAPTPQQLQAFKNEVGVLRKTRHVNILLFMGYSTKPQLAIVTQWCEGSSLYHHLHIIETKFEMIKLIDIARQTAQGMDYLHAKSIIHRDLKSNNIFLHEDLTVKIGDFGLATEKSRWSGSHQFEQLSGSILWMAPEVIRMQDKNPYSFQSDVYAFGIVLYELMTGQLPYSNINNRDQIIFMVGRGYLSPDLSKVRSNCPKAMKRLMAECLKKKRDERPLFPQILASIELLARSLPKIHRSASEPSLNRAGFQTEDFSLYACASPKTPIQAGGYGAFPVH

A-375 [10] = assay: Antitumor activity against human A375 cells expressing BRAF V600E mutant xenografted in F344 nude rat assessed as reduction in tumor size at 24.1 mg/kg, po bid for 14 days relative to control; assay type: functional
[11] = AUC (0 to 24 hrs) in dog at 10 mg/kg, po; assay type: ADME, organism-based, Canis lupus familiaris; set-up: time < 24 hr, dose 10 mg/kg, route oral; settings: plasma
[12] = Solubility of the compound in form of solid dispersion in phosphate buffer at pH 6.8; assay type: physicochemical
Rattus norvegicus [13] = assay: Toxicity in F344 nude rat xenografted with human A375 cells expressing BRAF V600E mutant assessed as body weight change at 24.1 mg/kg, po bid for 14 days relative to control; assay type: organism-based, A-375; set-up: dose 24.1 mg/kg, route oral; settings: in vivo, 336 h
A-375 [14] = assay: Antitumor activity against human A375 cells expressing BRAF V600E mutant xenografted in F344 nude rat assessed as reduction in tumor size at 9.7 mg/kg, po bid for 14 days relative to control; assay type: functional
[15] = Inhibition of PKA (unknown origin) expressed in Escherichia coli after 10 mins; set-up: species or system Homo sapiens
[16] = target: Protein kinase C theta type (Homo sapiens, UniProt Q04759); assay: Inhibition of C-terminal FLAG-tagged PKC-theta (unknown origin) expressed in […] using MBP as substrate after 60 mins
[17] = Inhibition of NRASQ61k/BRAFG469V-mutant in human HMVII cells assessed as phosphorylation of MEK after 2 hrs by Western blotting analysis; assay type: cell-based
Homo sapiens = organism: Homo sapiens; assay: Selectivity factor, ratio of IC50 for VEGFR2 (unknown origin) to IC50 for N-terminal FLAG-tagged recombinant BRAF-V600E (unknown origin) expressed in baculovirus system
[18] = Antitumor activity against human HMVII cells expressing NRAS Q61K/BRAF G469V mutant xenografted in F344 nude rat assessed as reduction in tumor size at 3.9 mg/kg, po bid for 14 days relative to control; assay type: functional, HMV-2
[19] = target: T3, Serine/threonine-protein kinase B-raf (Homo sapiens, UniProt P15056); assay: Binding affinity to BRAF (unknown origin) assessed as equilibrium dissociation constant by surface plasmon resonance analysis
[20] = target: Proto-oncogene tyrosine-protein kinase Src (Homo sapiens, UniProt P12931); assay: Inhibition of Src receptor (unknown origin) using biotinylated poly-Glu-Tyr (4:1) as substrate preincubated for 5 mins measured after 12 hrs
Rattus norvegicus [21] = assay: Toxicity in F344 nude rat xenografted with human HMVII cells expressing NRAS Q61K/BRAF G469V mutant assessed as body weight change at 3.9 mg/kg, po bid for 14 days; assay type: organism-based; set-up: dose 3.9 mg/kg, route oral; settings: in vivo, 336 h
Rattus norvegicus [22] = assay: Toxicity in F344 nude rat xenografted with human HMVII cells expressing NRAS Q61K/BRAF G469V mutant assessed as body weight change at 9.7 mg/kg, po bid for 14 days; assay type: organism-based; set-up: dose 9.7 mg/kg, route oral; settings: in vivo, 336 h
[23] = target: Epidermal growth factor receptor (Homo sapiens, UniProt P00533); assay: Inhibition of N-terminal peptide (DYKDDDD)-tagged EGFR (unknown origin) expressed in baculovirus system using biotinylated poly-Glu-Tyr (4:1) as substrate preincubated for 5 mins measured after 12 hrs by scintillation counting
[24] = Volume of distribution at steady state in rat at 1 mg/kg, iv; assay type: ADME, organism-based; set-up: dose 1 mg/kg, route intravenous; settings: in vivo, read-out: Vdss
Rattus norvegicus [25] = assay: Toxicity in F344 nude rat xenografted with human A375 cells expressing BRAF V600E mutant assessed as body weight change at 1.9 mg/kg, po bid for 14 days relative to control; assay type: organism-based, A-375; set-up: dose 1.9 mg/kg, route oral; settings: in vivo, 336 h
Rattus norvegicus [26] = assay: Toxicity in F344 nude rat xenografted with human A375 cells expressing BRAF V600E mutant assessed as body weight change at 3.9 mg/kg, po bid for 14 days relative to control; assay type: organism-based, A-375; set-up: dose 3.9 mg/kg, route oral; settings: in vivo, 336 h
[27] = Solubility of the compound in phosphate buffer at pH 6.8; assay type: physicochemical
[28] = target: T1, Serine/threonine-protein kinase B-raf; assay: Inhibition of BRAF V600E mutant in human A375 cells assessed as phosphorylation of ERK after 2 hrs by Western blotting analysis; assay type: cell-based, A-375
Target sequence in this assay (P15056 2-766 V600E limits assumed): as above

[29] = target: T3, Serine/threonine-protein kinase B-raf
Description: Binding affinity to BRAF (unknown origin) assessed as dissociation half life by surface plasmon resonance analysis

Aurora kinase B = Aurora kinase B (Homo sapiens, UniProt Q96GD4); assay: Inhibition of N-terminal His-6-tagged Aurora kinase B (unknown origin) expressed in baculovirus system after 60 mins
[30] = Oral bioavailability in rat at 25 mg/kg; assay type: ADME, organism-based; settings: in vivo
[31] = target: T2, RAF proto-oncogene serine/threonine-protein kinase; assay: Inhibition of CRAF (unknown origin) compound preincubated for 1 hr in presence of 0.5 uM ATP
[32] = Mean residence time in rat at 25 mg/kg, po; assay type: ADME, organism-based; set-up: dose 25 mg/kg, route oral; settings: in vivo
[33] = target: Dual specificity mitogen-activated protein kinase kinase 1 (Homo sapiens, UniProt Q02750); assay: Inhibition of N-terminal GST-tagged MEK1 (unknown origin) expressed in 293 cells using GST-ERK1(K71A) as substrate after 20 mins
[34] = Oral bioavailability in dog at 10 mg/kg; assay type: ADME, organism-based, Canis lupus familiaris; settings: in vivo
[35] = target: T1, Serine/threonine-protein kinase B-raf; assay: Inhibition of BRAF V600E mutant (unknown origin) compound preincubated for 1 hr in presence of 1000 uM ATP
Target sequence in this assay (P15056 2-766 V600E limits assumed): as above

[36] = target: T2, RAF proto-oncogene serine/threonine-protein kinase; assay: Inhibition of CRAF (unknown origin) compound preincubated for 1 hr in presence of 1000 uM ATP
[37] = target: Fibroblast growth factor receptor 3 (Homo sapiens, UniProt P22607); assay: Inhibition of FGFR3 (unknown origin) using biotinylated poly-Glu-Tyr (4:1) as substrate preincubated for 5 mins measured after 12 hrs

T2 sequence (P04049 whole entry): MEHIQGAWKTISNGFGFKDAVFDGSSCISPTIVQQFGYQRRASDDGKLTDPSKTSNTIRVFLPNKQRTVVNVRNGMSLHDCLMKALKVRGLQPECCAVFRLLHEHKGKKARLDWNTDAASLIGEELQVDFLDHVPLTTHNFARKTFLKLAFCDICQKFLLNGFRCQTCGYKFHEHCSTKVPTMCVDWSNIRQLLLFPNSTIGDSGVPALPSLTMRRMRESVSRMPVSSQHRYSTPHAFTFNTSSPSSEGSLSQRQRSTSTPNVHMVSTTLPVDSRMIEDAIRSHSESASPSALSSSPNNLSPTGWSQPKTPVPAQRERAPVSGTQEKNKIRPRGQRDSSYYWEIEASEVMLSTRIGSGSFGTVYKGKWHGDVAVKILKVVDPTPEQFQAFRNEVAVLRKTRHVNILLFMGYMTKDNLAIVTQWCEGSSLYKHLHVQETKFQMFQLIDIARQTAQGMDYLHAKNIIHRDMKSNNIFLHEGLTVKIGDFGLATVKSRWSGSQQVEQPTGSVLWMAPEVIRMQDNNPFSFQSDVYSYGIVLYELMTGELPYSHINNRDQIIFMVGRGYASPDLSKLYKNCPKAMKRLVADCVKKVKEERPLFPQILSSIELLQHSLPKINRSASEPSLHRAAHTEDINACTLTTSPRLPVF
T3 sequence (P15056 whole entry): as the sequence (P15056 whole entry V600E) above, with E600V counted along it
Protein kinase C theta type, sequence (Q04759 whole entry): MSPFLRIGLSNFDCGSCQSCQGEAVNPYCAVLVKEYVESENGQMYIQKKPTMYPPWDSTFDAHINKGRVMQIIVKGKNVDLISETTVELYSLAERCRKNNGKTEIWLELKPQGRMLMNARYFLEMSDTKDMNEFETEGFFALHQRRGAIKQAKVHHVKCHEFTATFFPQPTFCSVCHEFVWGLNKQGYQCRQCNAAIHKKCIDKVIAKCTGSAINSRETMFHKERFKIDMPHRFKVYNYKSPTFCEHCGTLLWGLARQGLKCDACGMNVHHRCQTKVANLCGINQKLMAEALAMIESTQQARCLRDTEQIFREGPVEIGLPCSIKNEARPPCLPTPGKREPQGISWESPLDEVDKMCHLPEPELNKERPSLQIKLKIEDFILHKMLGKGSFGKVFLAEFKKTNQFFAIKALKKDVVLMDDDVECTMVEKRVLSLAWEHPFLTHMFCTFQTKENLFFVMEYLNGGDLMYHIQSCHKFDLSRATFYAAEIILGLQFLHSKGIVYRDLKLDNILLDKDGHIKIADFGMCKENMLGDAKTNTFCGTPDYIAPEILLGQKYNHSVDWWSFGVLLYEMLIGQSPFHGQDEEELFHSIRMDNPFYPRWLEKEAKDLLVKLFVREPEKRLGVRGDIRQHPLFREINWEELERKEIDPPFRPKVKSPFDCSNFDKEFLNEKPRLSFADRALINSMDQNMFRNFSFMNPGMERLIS
Dual specificity mitogen-activated protein kinase kinase 1, sequence (Q02750 whole entry): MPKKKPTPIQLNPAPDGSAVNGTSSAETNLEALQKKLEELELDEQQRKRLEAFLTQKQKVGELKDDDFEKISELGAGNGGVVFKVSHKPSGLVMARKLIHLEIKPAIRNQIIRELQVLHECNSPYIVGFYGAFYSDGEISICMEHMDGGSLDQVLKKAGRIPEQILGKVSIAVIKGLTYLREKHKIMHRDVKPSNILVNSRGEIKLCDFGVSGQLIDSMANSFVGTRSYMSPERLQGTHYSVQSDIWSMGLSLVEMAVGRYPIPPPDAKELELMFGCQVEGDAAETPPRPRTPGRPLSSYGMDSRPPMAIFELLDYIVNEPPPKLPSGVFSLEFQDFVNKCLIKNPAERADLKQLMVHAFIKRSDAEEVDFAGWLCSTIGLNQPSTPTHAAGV
Mitogen-activated protein kinase kinase kinase 1, sequence (Q13233 whole entry): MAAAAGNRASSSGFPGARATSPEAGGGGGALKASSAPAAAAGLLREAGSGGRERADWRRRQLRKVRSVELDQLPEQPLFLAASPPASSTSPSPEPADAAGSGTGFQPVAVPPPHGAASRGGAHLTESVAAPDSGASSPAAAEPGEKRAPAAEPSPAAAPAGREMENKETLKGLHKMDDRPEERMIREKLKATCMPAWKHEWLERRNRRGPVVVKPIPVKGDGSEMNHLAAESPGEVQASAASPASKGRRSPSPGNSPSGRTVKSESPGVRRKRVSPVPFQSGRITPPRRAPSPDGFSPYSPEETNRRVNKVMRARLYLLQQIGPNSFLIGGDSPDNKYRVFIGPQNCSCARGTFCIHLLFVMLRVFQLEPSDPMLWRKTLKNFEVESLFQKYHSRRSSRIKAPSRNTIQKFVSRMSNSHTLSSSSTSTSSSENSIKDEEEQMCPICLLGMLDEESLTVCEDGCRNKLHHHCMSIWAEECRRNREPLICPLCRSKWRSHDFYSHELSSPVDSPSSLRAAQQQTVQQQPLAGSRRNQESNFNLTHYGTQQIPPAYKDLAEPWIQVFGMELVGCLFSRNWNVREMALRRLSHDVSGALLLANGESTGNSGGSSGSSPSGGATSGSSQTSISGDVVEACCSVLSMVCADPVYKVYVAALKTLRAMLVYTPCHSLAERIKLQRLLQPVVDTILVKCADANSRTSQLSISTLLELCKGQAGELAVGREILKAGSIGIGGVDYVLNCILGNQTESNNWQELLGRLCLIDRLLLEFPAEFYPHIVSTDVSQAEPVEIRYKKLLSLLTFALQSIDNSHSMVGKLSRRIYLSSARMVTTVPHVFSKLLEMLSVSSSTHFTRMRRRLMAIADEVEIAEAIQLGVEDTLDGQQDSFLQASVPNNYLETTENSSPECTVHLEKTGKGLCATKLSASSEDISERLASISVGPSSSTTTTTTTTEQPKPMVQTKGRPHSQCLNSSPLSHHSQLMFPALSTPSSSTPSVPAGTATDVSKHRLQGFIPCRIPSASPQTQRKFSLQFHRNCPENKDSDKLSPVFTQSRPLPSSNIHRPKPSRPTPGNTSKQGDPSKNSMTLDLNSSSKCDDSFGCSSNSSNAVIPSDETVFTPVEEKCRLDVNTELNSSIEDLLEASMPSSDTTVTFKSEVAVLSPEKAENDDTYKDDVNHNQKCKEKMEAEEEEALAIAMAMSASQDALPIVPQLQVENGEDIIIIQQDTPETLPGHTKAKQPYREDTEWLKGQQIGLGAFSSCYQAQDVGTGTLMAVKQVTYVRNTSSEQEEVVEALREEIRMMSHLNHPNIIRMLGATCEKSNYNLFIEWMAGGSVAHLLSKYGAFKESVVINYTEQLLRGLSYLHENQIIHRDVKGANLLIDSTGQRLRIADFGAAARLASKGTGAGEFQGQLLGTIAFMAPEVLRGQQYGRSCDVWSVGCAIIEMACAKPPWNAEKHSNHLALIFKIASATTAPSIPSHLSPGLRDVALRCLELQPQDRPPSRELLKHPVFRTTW

## N#Cc1c(Oc2ccc(F)c(NC(=O)Cc3cccc(C(F)(F)F)c3)c2)ccc2nc(NC(=O)C3CC3)sc12
[1]
  IC50: 15 nM
[2]
  clearance: 11.7 mL/min/kg
[3]
  AUC(0-t) at 24 h: 2510 ng·h/mL
[4]
  IC50: 3700 nM
[5]
  IC50: > 10000 nM
[6]
  IC50: > 10000 nM
[7]
  IC50: > 10000 nM
[8]
  IC50: 8.1 nM
[8]; TDE = time-dependent effect
  inhibition: tde
[9]
  IC50: 2.2 nM
A-375 [10]
  T/C: -12.1%
[11]
  AUC(0-t) at 24 h: 15500 ng·h/mL
[12]
  solubility: 740 µg/mL (≈ 1330 µM)
Rattus norvegicus [13]
  Activity: 18.6 g
A-375 [14]
  T/C: -2.1%
[15]
  IC50: > 10000 nM
[16]
  IC50: > 10000 nM
[17]
  IC50: 49 nM
Homo sapiens
  Ratio IC50: 67
[18]
  T/C: 52%
[19]
  Kd: 1.6 nM
[20]
  IC50: > 10000 nM
Rattus norvegicus [21]
  Activity: -4.8 g
Rattus norvegicus [22]
  Activity: 9.8 g
[23]
  IC50: > 10000 nM
[24]
  Vd: 1.87 L/kg
Rattus norvegicus [25]
  Activity: 9.3 g
Rattus norvegicus [26]
  Activity: 11.2 g
[27]
  solubility: < 0.02 µg/mL
[28]
  IC50: 16 nM
[29]
  T1/2: 10 h
Aurora kinase B
  IC50: 66 nM
[30]
  bioavailability: 51.7%
[31]
  IC50: 1.5 nM
[32]
  MRT: 6.27 h
[33]
  IC50: 3700 nM
[34]
  bioavailability: 108%
[35]
  IC50: 3.3 nM
[36]
  IC50: 5 nM
[37]
  IC50: 280 nM
